Experimental data from ChEMBL document CHEMBL1128779, “Synthesis of a fluorescent labeled thromboxane A2 receptor antagonist” (Bioorg Med Chem Lett, 1995).

Target: T1, Thromboxane A2 receptor (Homo sapiens, UniProt P21731)
T1 sequence (P21731 whole entry): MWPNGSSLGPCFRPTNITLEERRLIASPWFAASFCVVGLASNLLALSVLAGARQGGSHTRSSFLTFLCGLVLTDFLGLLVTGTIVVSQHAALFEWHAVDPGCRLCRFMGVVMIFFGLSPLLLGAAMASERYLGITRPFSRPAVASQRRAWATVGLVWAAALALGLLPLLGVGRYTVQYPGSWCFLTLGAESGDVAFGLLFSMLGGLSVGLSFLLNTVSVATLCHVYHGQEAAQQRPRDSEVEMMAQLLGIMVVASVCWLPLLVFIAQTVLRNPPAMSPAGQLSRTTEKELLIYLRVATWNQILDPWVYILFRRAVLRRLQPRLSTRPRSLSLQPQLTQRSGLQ
Experiment: Binding affinity of Thromboxane A2 (TXA2) receptor using [3H]-SQ 29,548 radioligand in washed human platelets

Kd [nM] | Structure (SMILES)
424 | CC1(C)C2CC[C@@H](Cc3cccc4ccc(=O)oc34)C1C2 (some centres not stated)
138 | CC1(C)C2CC[C@H](Cc3cccc4ccc(=O)oc34)C1C2 (some centres not stated)
